From patent publication US4684664A, “Derivatives of β-(4-isocyano-1,2,3,4-diepoxycyclopentyl) acrylic acid” (Kureha Kagaku Kogyo Kabushiki Kaisha, priority 1984, dated 1987)
Converted amounts (≈) assume the structure as drawn.

Legend:
[1] = test system: Salmonella typhimurium IID 971; experiment: Antibacterial activity, agar-dilution MIC, organism No. 8; type: cell-based; conditions: Salmonella enterica; Organism No. 8, bouillon-agar; read-out: Minimum Inhibitory Concentration
Outline: (§1)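 An agar-dilution procedure on bouillon-agar medium was applied, and each MIC was recorded as micrograms of specimen per ml of medium.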

[2] = test system: Proteus vulgaris OX-19; experiment: Antibacterial activity, agar-dilution MIC, organism No. 20; type: cell-based; conditions: Proteus vulgaris, OX19; Organism No. 20, bouillon-agar; read-out: Minimum Inhibitory Concentration
Outline: as §1

[3] = test system: Pseudomonas aeruginosa NCTC 10490; experiment: Antibacterial activity, agar-dilution MIC, organism No. 16; type: cell-based; conditions: Pseudomonas aeruginosa, NCTC10490; Organism No. 16, bouillon-agar; read-out: Minimum Inhibitory Concentration
Outline: as §1

[4] = test system: Serratia marcescens IAM 1184; experiment: Antibacterial activity, agar-dilution MIC, organism No. 13; type: cell-based; conditions: Serratia marcescens, IAM1184; Organism No. 13, bouillon-agar; read-out: Minimum Inhibitory Concentration
Outline: as §1

[5] = test system: Aspergillus niger IFO 6342; experiment: Antifungal activity, agar-dilution MIC, organism No. 30; type: cell-based; conditions: Aspergillus niger, IFO6342; Organism No. 30, bouillon-agar; read-out: Minimum Inhibitory Concentration
Outline: as §1

[6] = test system: Streptococcus pyogenes Cook; experiment: Antibacterial activity, agar-dilution MIC, organism No. 4; type: cell-based; conditions: Streptococcus pyogenes; Organism No. 4, bouillon-agar; read-out: Minimum Inhibitory Concentration
Outline: as §1

[7] = test system: Escherichia coli NIHJ-JC-2; experiment: Antibacterial activity, agar-dilution MIC, organism No. 5; type: cell-based; conditions: Escherichia coli, NIHJJC2; Organism No. 5, bouillon-agar; read-out: Minimum Inhibitory Concentration
Outline: as §1

[8] = test system: Salmonella enteritidis G 14; experiment: Antibacterial activity, agar-dilution MIC, organism No. 12; type: cell-based; conditions: Salmonella enterica, ENTERITIDIS; Organism No. 12, bouillon-agar; read-out: Minimum Inhibitory Concentration
Outline: as §1

[9] = Stability in a non-solvent state; type: physicochemical
[10] = test system: Salmonella typhi 901; experiment: Antibacterial activity, agar-dilution MIC, organism No. 9; type: cell-based; conditions: Salmonella enterica, TYPHI, read-out: Minimum Inhibitory Concentration
Outline: as §1

[11] = test system: Enterobacter cloacae 963; experiment: Antibacterial activity, agar-dilution MIC, organism No. 24; type: cell-based; conditions: Enterobacter cloacae, 963; Organism No. 24, bouillon-agar; read-out: Minimum Inhibitory Concentration
Outline: as §1

[12] = test system: Klebsiella pneumoniae PCI-602; experiment: Antibacterial activity, agar-dilution MIC, organism No. 7; type: cell-based; conditions: Klebsiella pneumoniae, PCI602; Organism No. 7, bouillon-agar; read-out: Minimum Inhibitory Concentration
Outline: as §1

[13] = test system: Staphylococcus aureus FDA 209PJc-1; experiment: Antibacterial activity, agar-dilution MIC, organism No. 1; type: cell-based; conditions: Staphylococcus aureus, FDA209PJC1; Organism No. 1, bouillon-agar; read-out: Minimum Inhibitory Concentration
Outline: as §1

[14] = test system: Pseudomonas aeruginosa PAO 1; experiment: Antibacterial activity, agar-dilution MIC, organism No. 17; type: cell-based; conditions: Pseudomonas aeruginosa, PAO1; Organism No. 17, bouillon-agar; read-out: Minimum Inhibitory Concentration
Outline: as §1

[15] = test system: Streptococcus pyogenes IFO 3340; experiment: Antibacterial activity, agar-dilution MIC, organism No. 26; type: cell-based; conditions: Streptococcus pyogenes, IFO3340; Organism No. 26, bouillon-agar; read-out: Minimum Inhibitory Concentration
Outline: as §1

[16] = test system: Proteus rettgeri IFO 3850; experiment: Antibacterial activity, agar-dilution MIC, organism No. 22; type: cell-based; conditions: Providencia rettgeri, IFO3850; Organism No. 22, bouillon-agar; read-out: Minimum Inhibitory Concentration
Outline: as §1

[17] = test system: Proteus morganii IFO 3848; experiment: Antibacterial activity, agar-dilution MIC, organism No. 18; type: cell-based; conditions: Morganella morganii, IFO3848; Organism No. 18, bouillon-agar; read-out: Minimum Inhibitory Concentration
Outline: as §1

[18] = test system: Bacillus subtilis ATCC 6633; experiment: Antibacterial activity, agar-dilution MIC, organism No. 14; type: cell-based; conditions: Bacillus subtilis, ATCC6633; Organism No. 14, bouillon-agar; read-out: Minimum Inhibitory Concentration
Outline: as §1

[19] = test system: Micrococcus luteus ATCC 9341; experiment: Antibacterial activity, agar-dilution MIC, organism No. 25; type: cell-based; conditions: Micrococcus luteus, ATCC9341; Organism No. 25, bouillon-agar; read-out: Minimum Inhibitory Concentration
Outline: as §1

[20] = test system: Mycoplasma pneumoniae IID817; experiment: Antimycoplasmal activity, MIC by phenol red colour change, organism No. 28; type: cell-based; conditions: Mycoplasma, IID817; Organism No. 28, PPLO broth + 1% glucose, 37° C.; read-out: Minimum Inhibitory Concentration (MIC)
Procedure: Mycoplasma pneumoniae IID817 was used as the test microorganism in a culture medium prepared by adding 1% of glucose to "PPLO broth (manufactured by Difco Co.) liquid culture medium" at 37° C. with phenol red as an indicator, thereby culturing the test microorganism.

[21] = test system: Streptococcus faecium IFO 3826; experiment: Antibacterial activity, agar-dilution MIC, organism No. 27; type: cell-based; conditions: Enterococcus faecium, IFO3826; Organism No. 27, bouillon-agar; read-out: Minimum Inhibitory Concentration
Outline: as §1

[22] = test system: Enterobacter aerogenes ATCC 13048; experiment: Antibacterial activity, agar-dilution MIC, organism No. 23; type: cell-based; conditions: Klebsiella aerogenes, ATCC13048; Organism No. 23, bouillon-agar; read-out: Minimum Inhibitory Concentration
Outline: as §1

[23] = test system: Salmonella paratyphi-A 1015; experiment: Antibacterial activity, agar-dilution MIC, organism No. 10; type: cell-based; conditions: Salmonella enterica, PARATYPHI, read-out: Minimum Inhibitory Concentration
Outline: as §1

[24] = test system: Proteus vulgaris HX-19; experiment: Antibacterial activity, agar-dilution MIC, organism No. 21; type: cell-based; conditions: Proteus vulgaris, HX19; Organism No. 21, bouillon-agar; read-out: Minimum Inhibitory Concentration
Outline: as §1

[25] = test system: Proteus mirabilis IFO 3849; experiment: Antibacterial activity, agar-dilution MIC, organism No. 19; type: cell-based; conditions: Proteus mirabilis, IFO3849; Organism No. 19, bouillon-agar; read-out: Minimum Inhibitory Concentration
Outline: as §1

[26] = test system: Escherichia coli K12 C600 IAM 1264; experiment: Antibacterial activity, agar-dilution MIC, organism No. 6; type: cell-based; conditions: Escherichia coli, IAM1264; Organism No. 6, bouillon-agar; read-out: Minimum Inhibitory Concentration
Outline: as §1

[27] = test system: Candida albicans IAM 4905; experiment: Antifungal activity, agar-dilution MIC, organism No. 29; type: cell-based; conditions: Candida albicans, IAM4905; Organism No. 29, bouillon-agar; read-out: Minimum Inhibitory Concentration
Outline: as §1

[28] = test system: Staphylococcus aureus Terajima; experiment: Antibacterial activity, agar-dilution MIC, organism No. 2; type: cell-based; conditions: Staphylococcus aureus; Organism No. 2, bouillon-agar; read-out: Minimum Inhibitory Concentration
Outline: as §1

[29] = test system: Staphylococcus aureus MS 353; experiment: Antibacterial activity, agar-dilution MIC, organism No. 3; type: cell-based; conditions: Staphylococcus aureus, MS353; Organism No. 3, bouillon-agar; read-out: Minimum Inhibitory Concentration
Outline: as §1

[30] = test system: Salmonella shottmuelleri 8006; experiment: Antibacterial activity, agar-dilution MIC, organism No. 11; type: cell-based; conditions: Salmonella, 8006; Organism No. 11, bouillon-agar; read-out: Minimum Inhibitory Concentration
Outline: as §1

[31] = test system: Pseudomonas aeruginosa IFO 3445; experiment: Antibacterial activity, agar-dilution MIC, organism No. 15; type: cell-based; conditions: Pseudomonas aeruginosa, IFO3445; Organism No. 15, bouillon-agar; read-out: Minimum Inhibitory Concentration
Outline: as §1

Compound	MIC [1] [µg/mL]	MIC [2] [µg/mL]	MIC [3] [µg/mL]	MIC [4] [µg/mL]	MIC [5] [µg/mL]	MIC [6] [µg/mL]	MIC [7] [µg/mL]	MIC [8] [µg/mL]	MIC [10] [µg/mL]	MIC [11] [µg/mL]	MIC [12] [µg/mL]	MIC [13] [µg/mL]	MIC [14] [µg/mL]	MIC [15] [µg/mL]	MIC [16] [µg/mL]	MIC [17] [µg/mL]	MIC [18] [µg/mL]	MIC [19] [µg/mL]	MIC [20] [µg/mL]	MIC [21] [µg/mL]	further results
[C-]#[N+]C12CC3(/C=C/C(=O)OCc4cc([N+](=O)[O-])ccc4O)OC3C1O2 (centres unmarked) [Compound No. 17]	> 200	> 200	> 200	> 200	> 100	> 200	> 200	> 200	200 (≈ 581 µM)	> 200	> 200	> 200	> 200	> 200	> 200	> 200	> 200	200 (≈ 581 µM)	100	> 200	stability (in words) [9]: tendency thereof of decomposition in a non-solvent state; MIC [22]: > 200 µg/mL; MIC [23]: > 200 µg/mL; MIC [24]: > 200 µg/mL; MIC [25]: > 200 µg/mL; MIC [26]: > 200 µg/mL; MIC [27]: > 100 µg/mL; MIC [28]: > 200 µg/mL; MIC [29]: > 200 µg/mL; MIC [30]: > 200 µg/mL; MIC [31]: > 200 µg/mL
[C-]#[N+]C12CC3(/C=C/C(=O)OCc4ccccc4)OC3C1O2 (stereo not drawn) [Compound No. 10, benzyl β-substituted acrylate]	3.13 (≈ 11 µM)	< 0.1	> 100	12.5 (≈ 44.1 µM)	1.56 (≈ 5.51 µM)	3.13 (≈ 11 µM)	6.25 (≈ 22.1 µM)	3.13 (≈ 11 µM)	0.78 (≈ 2.75 µM)	50 (≈ 177 µM)	< 0.1	0.39 (≈ 1.38 µM)	> 100	3.13 (≈ 11 µM)	6.25 (≈ 22.1 µM)	0.39 (≈ 1.38 µM)	0.78 (≈ 2.75 µM)	< 0.1	< 0.2	1.56 (≈ 5.51 µM)	stability (in words) [9]: decomposed and coloured when left in a non-solvent state; MIC [22]: > 100 µg/mL; MIC [23]: 0.78 µg/mL (≈ 2.75 µM); MIC [24]: < 0.1 µg/mL; MIC [25]: 3.13 µg/mL (≈ 11 µM); MIC [26]: 3.13 µg/mL (≈ 11 µM); MIC [27]: 0.8 µg/mL (≈ 2.82 µM); MIC [28]: 1.56 µg/mL (≈ 5.51 µM); MIC [29]: 0.39 µg/mL (≈ 1.38 µM); MIC [30]: < 0.1 µg/mL; MIC [31]: > 100 µg/mL
[C-]#[N+]C12CC3(/C=C/C(=O)Nc4cccc(N)c4)OC3C1O2 (centres unmarked) [compound 60]	12.5 (≈ 44.1 µM)	0.39 (≈ 1.38 µM)	> 200	200 (≈ 706 µM)	100 (≈ 353 µM)	25 (≈ 88.2 µM)	25 (≈ 88.2 µM)	6.25 (≈ 22.1 µM)	3.13 (≈ 11 µM)	200 (≈ 706 µM)	1.56 (≈ 5.51 µM)	3.13 (≈ 11 µM)	> 200	3.13 (≈ 11 µM)	> 200	1.56 (≈ 5.51 µM)	12.5 (≈ 44.1 µM)	0.39 (≈ 1.38 µM)	< 0.2	50 (≈ 176 µM)	MIC [22]: > 200 µg/mL; MIC [23]: 3.13 µg/mL (≈ 11 µM); MIC [24]: 0.39 µg/mL (≈ 1.38 µM); MIC [25]: > 200 µg/mL; MIC [26]: 25 µg/mL (≈ 88.2 µM); MIC [27]: 25 µg/mL (≈ 88.2 µM); MIC [28]: 12.5 µg/mL (≈ 44.1 µM); MIC [29]: 3.13 µg/mL (≈ 11 µM); MIC [30]: 3.13 µg/mL (≈ 11 µM); MIC [31]: > 200 µg/mL
